Reference: publication PMC6274715, “Discovery of Novel Druggable Sites on Zika Virus NS3 Helicase Using X-ray Crystallography-Based Fragment Screening” (International Journal of Molecular Sciences, 2018)

Molecular target: T1, ZIKV NS3-Hel (Zika virus NS3 helicase) (Zika virus ZIKV/H. sapiens/FrenchPolynesia/10087PF/2013, UniProt A0A024B7W1)
T1 construct: helicase domain, residues 171-617 of NS3, cut from the genome polyprotein; N-terminal 6xHis-SUMO tag cleaved off
Test: STD NMR titration; crystal structure also solved
Assay type: binding

T1 sequence (A0A024B7W1 1673-2119): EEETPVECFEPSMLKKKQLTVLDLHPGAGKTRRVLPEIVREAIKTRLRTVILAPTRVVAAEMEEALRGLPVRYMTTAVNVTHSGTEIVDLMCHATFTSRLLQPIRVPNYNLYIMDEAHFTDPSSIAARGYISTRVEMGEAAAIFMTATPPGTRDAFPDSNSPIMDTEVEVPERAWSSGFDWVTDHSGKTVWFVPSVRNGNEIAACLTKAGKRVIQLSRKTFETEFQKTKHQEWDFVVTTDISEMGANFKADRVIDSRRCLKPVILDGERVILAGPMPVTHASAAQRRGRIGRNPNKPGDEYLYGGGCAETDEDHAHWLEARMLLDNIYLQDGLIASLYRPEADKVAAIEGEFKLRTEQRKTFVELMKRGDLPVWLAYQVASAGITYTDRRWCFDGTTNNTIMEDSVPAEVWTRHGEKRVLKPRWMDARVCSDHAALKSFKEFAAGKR

SMILES | Kd [mM]
Nc1nc(N)c2[nH]cnc2n1 [compound 1, 2,6-di-aminopurine] | 2.8 ± 0.4
NC(=O)c1ccc(Cl)cc1Cl [compound 4, 2,4-dicholorobenzamide] | 5.1 ± 1.4
